Each molecule was assayed against T1, SOS1 (Homo sapiens, UniProt Q07889) (assay: SOS-catalyzed nucleotide exchange assay (HTRF, SOS1-mediated GTP loading of KRAS G12D)). Conditions: GST-KRAS G12D, HIS-SOS1cat, EDA-GTP-DY-647P1; compound 128 pM to 10 µM; read-out: SOS-catalyzed nucleotide exchange assay (IC50 range, Grade).
T1 construct: adding equal amounts of HIS-SOS1cat (160 nM; Cytoskeleton, US); His; purchased Cytoskeleton, US
T1 sequence (Q07889 564-1049 limits assumed): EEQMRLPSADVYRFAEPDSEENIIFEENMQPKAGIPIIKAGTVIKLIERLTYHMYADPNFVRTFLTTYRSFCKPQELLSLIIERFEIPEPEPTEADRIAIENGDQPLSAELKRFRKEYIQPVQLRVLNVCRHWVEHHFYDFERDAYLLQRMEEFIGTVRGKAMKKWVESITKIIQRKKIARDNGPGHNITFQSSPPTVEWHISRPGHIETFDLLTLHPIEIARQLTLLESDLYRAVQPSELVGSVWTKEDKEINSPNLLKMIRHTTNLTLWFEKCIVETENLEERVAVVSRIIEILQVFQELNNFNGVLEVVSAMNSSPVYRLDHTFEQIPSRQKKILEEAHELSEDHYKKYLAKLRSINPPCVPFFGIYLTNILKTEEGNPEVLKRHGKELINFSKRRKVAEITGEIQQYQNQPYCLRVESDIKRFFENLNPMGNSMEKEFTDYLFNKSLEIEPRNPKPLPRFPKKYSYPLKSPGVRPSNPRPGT
Assay type: biochemical
Experimental: SOS1 activity was measured by SOS1-mediated GTP loading quantification of KRAS^G12D. GTP-loaded KRAS^G12D was detected by HTRF (Homogeneous Time Resolved Fluorescence) using anti-GST terbium (Cisbio, France) as a donor and a fluorescence GTP analogue (EDA-GTP-DY-647P1, [DY-647P1-labeled 2'/3'-O-(2-aminoethyl-carbamoyl)guanosine-5'-triphosphate (Jena bioscience, Germany)]) as an acceptor.
Assay buffer was composed of 10 mM HEPES pH 7.4, 150 mM NaCl, 5 mM MgCl2, 1 mM DTT, 0.05% BSA Fraction V pH 7.0 (Sigma) and 0.0025% (v/v) Igepal (Sigma). KRAS^G12D working solution was prepared by adding equal amounts of GST-KRAS^G12D (100 nM) and anti-GST-terbium (2 nM; Cisbio, France) to the assay buffer and incubating on ice for 10 minutes. SOS1cat working solution was prepared by adding equal amounts of HIS-SOS1cat (160 nM; Cytoskeleton, US) and EDA-GTP-DY-647P1 (200 nM; Jena bioscience, Germany) to the assay buffer. Control solution was prepared by adding equal volumes of EDA-GTP-DY-647P1 and the assay buffer for normalization control to exclude GEF-independent GTP loading and background signals. In order to induce a reaction, 5 µL of the SOS1cat working solution or the control solution was injected into each well. 5 µL of a compound having various concentrations from 128 pM to 10 µM was added to wells containing the SOS1cat working solution and incubated at room temperature for 10 minutes to bind to SOS1.
10 µL of the KRAS^G12D solution was added to each well and incubated for 30 minutes at room temperature while shaking. HTRF was measured using a Thermo Varioskan (excitation 334 nm, emission 665 nm). The IC50 of each inhibitor was analyzed using Graphad Prism.
The SOS1 inhibitory activity of the Example compounds measured by the above method was evaluated based on the following criteria, and the results are shown in Table 29.

Question: `CC(=O)Nc1cccc(-n2cc(C(=O)N[C@H](C)c3cc(N)cc(C(F)(F)F)c3)ccc2=O)c1` [Example 129, N-[(1R)-1-[3-amino-5-(trifluoromethyl)phenyl]ethyl]-1-(3-acetamidophenyl)-6-oxo-1,6-dihydropyridine-3-carboxamide] was tested. Which IC50 did it give?
Answer: < 1000 nM

Question: For `C[C@@H](NC(=O)c1ccc(=O)n(-c2cc(F)ccc2F)c1)c1cc(N)cc(C(F)(F)F)c1` [Example 96, N-[(1R)-1-[3-amino-5-(trifluoromethyl)phenyl]ethyl]-1-(2,5-difluorophenyl)-6-oxo-1,6-dihydropyridine-3-carboxamide], which IC50 is on record?
Answer: < 1000 nM

Question: Which IC50 does the source give for `CC1CC=C(n2nc(C(=O)N[C@H](C)c3cc(N)cc(C(F)(F)F)c3)ccc2=O)CC1` (stereo partly drawn) [Example 66, N-[(1R)-1-[3-amino-5-(trifluoromethyl)phenyl]ethyl]-1-(4-methylcyclohex-1-en-1-yl)-6-oxo-1,6-dihydropyridazine-3-carboxamide] here?
Answer: 1000 to 10000 nM

Question: Which IC50 does the source give for `C[C@@H](NC(=O)c1ccc(=O)n(-c2cccc(NS(C)(=O)=O)c2)n1)c1cccc(C(F)(F)CO)c1` [Example 39, (R)-N-(1-(3-(1,1-difluoro-2-hydroxyethyl)phenyl)ethyl)-1-(3-(methylsulfonamido)phenyl)-6-oxo-1,6-dihydropyridazine-3-carboxamide] here?
Answer: < 1000 nM

Question: How did the IC50 turn out when `CNCc1ccc(Cl)cc1-c1cnc([C@@H](C)NC(=O)c2ccc(=O)n(-c3ccccc3F)n2)s1` [Example 137, N-[(1R)-1-[5-[5-chloro-2-(methylaminomethyl)phenyl]thiazol-2-yl]ethyl]-1-(2-fluorophenyl)-6-oxo-pyridazine-3-carboxamide] was run?
Answer: < 1000 nM

Question: `C[C@@H](NC(=O)c1ccc(=O)n(-c2cccc(C(=O)N3CCOCC3)c2)c1)c1cc(N)cc(C(F)(F)F)c1` [Example 75, N-[(1R)-1-[3-amino-5-(trifluoromethyl)phenyl]ethyl]-1-[3-(morpholine-4-carbonyl)phenyl]-6-oxo-1,6-dihydropyridine-3-carboxamide] was tested. Which IC50 did it give?
Answer: < 1000 nM

Question: `COc1ccccc1-n1nc(C(=O)N[C@H](C)c2cc(N)cc(C(F)(F)F)c2)ccc1=O` [Example 23, N-[(1R)-1-[3-amino-5-(trifluoromethyl)phenyl]ethyl]-1-(2-methoxyphenyl)-6-oxo-pyridazine-3-carboxamide] was tested. Which IC50 did it give?
Answer: < 1000 nM

Question: For `C[C@@H](NC(=O)c1ccc(=O)n(C2CCN(S(C)(=O)=O)CC2)n1)c1cccc(Cl)c1` [Example 19, (R)-N-(1-(3-chlorophenyl)ethyl)-1-(1-(methylsulfonyl)piperidin-4-yl)-6-oxo-1,6-dihydropyridazine-3-carboxamide], which IC50 is on record?
Answer: 1000 to 10000 nM

Question: With `C[C@@H](NC(=O)c1ccc(=O)n(-c2ccccc2)n1)c1cccc(Br)c1` [Example 2, N-[(1R)-1-(3-bromophenyl)ethyl]-6-oxo-1-phenyl-pyridazine-3-carboxamide] as the molecule, how does the IC50 read?
Answer: 1000 to 10000 nM

Question: Which IC50 does the source give for `C[C@@H](NC(=O)c1cc(C2CC2)c(=O)n(-c2ccccc2)n1)c1cc(N)cc(C(F)(F)F)c1` [Example 54, (R)-N-(1-(3-amino-5-(trifluoromethyl)phenyl)ethyl)-5-cyclopropyl-6-oxo-1-phenyl-1,6-dihydropyridazine-3-carboxamide] here?
Answer: < 1000 nM

Question: `C[C@@H](NC(=O)c1ccc(=O)n(-c2cccc(C(=O)N(C)C)c2)n1)c1cc(N)cc(C(F)(F)F)c1` [Example 31, (R)-N-(1-(3-amino-5-(trifluoromethyl)phenyl)ethyl)-1-(3-(dimethylcarbamoyl)phenyl)-6-oxo-1,6-dihydropyridazine-3-carboxamide] was tested. Which IC50 did it give?
Answer: < 1000 nM

Question: Which IC50 does the source give for `C[C@@H](NC(=O)c1ccc(=O)n(-c2ccccc2OC(F)(F)F)n1)c1cccc(C(F)(F)CO)c1F` [Example 44, (R)-N-(1-(3-(1,1-difluoro-2-hydroxyethyl)-2-fluorophenyl)ethyl)-6-oxo-1-(2-(trifluoromethoxy)phenyl)-1,6-dihydropyridazine-3-carboxamide] here?
Answer: < 1000 nM

Question: For `C[C@@H](NC(=O)c1ccc(=O)n(C2=CCN(S(C)(=O)=O)CC2)n1)c1cc(N)cc(C(F)(F)F)c1` [Example 67, N-[(1R)-1-[3-amino-5-(trifluoromethyl)phenyl]ethyl]-1-(1-methanesulfonyl-1,2,3,6-tetrahydropyridin-4-yl)-6-oxo-1,6-dihydropyridazine-3-carboxamide], which IC50 is on record?
Answer: < 1000 nM

Question: `C[C@@H](NC(=O)c1ccc(=O)n(-c2cccc3ccccc23)n1)c1cc(N)cc(C(F)(F)F)c1` [Example 25, (R)-N-(1-(3-amino-5-(trifluoromethyl)phenyl)ethyl)-1-(naphthalen-1-yl)-6-oxo-1,6-dihydropyridazine-3-carboxamide] was tested. Which IC50 did it give?
Answer: < 1000 nM

Question: `C[C@@H](NC(=O)c1ccc(=O)n(-c2ccccc2O)n1)c1cc(N)cc(C(F)(F)F)c1` [Example 47, N-[(1R)-1-[3-amino-5-(trifluoromethyl)phenyl]ethyl]-1-(2-hydroxyphenyl)-6-oxo-pyridazine-3-carboxamide] was tested. Which IC50 did it give?
Answer: < 1000 nM

Question: `C[C@@H](NC(=O)c1ccc(=O)n(-c2ccccc2C#N)n1)c1cc(N)cc(C(F)(F)F)c1` [Example 29, N-[(1R)-1-[3-amino-5-(trifluoromethyl)phenyl]ethyl]-1-(2-cyanophenyl)-6-oxo-pyridazine-3-carboxamide] was tested. Which IC50 did it give?
Answer: < 1000 nM

Question: For `CC(=O)Nc1cccc(-n2nc(C(=O)N[C@H](C)c3cc(N)cc(C(F)(F)F)c3)ccc2=O)c1` [Example 35, (R)-1-(3-acetamidophenyl)-N-(1-(3-amino-5-(trifluoromethyl)phenyl)ethyl)-6-oxo-1,6-dihydropyridazine-3-carboxamide], which IC50 is on record?
Answer: < 1000 nM

Question: Which IC50 does the source give for `C[C@@H](NC(=O)c1ccc(=O)n(C2CCCC2)n1)c1cc(N)cc(C(F)(F)F)c1` [Example 115, N-[(1R)-1-[3-amino-5-(trifluoromethyl)phenyl]ethyl]-1-cyclopentyl-6-oxo-1,6-dihydropyridazine-3-carboxamide] here?
Answer: 1000 to 10000 nM

Question: Which IC50 does the source give for `C[C@@H](NC(=O)c1ccc(=O)n(-c2ccccc2NS(C)(=O)=O)n1)c1cc(N)cc(C(F)(F)F)c1` [Example 33, N-[(1R)-1-[3-amino-5-(trifluoromethyl)phenyl]ethyl]-1-[2-(methanesulfonamido)phenyl]-6-oxo-pyridazine-3-carboxamide] here?
Answer: < 1000 nM

Question: Which IC50 does the source give for `C[C@@H](NC(=O)c1ccc(=O)n([C@H]2CCCC[C@@H]2O)n1)c1cc(N)cc(C(F)(F)F)c1` [Example 125, N-((R)-1-(3-amino-5-(trifluoromethyl)phenyl)ethyl)-1-((1S,2S)-2-hydroxycyclohexyl)-6-oxo-1,6-dihydropyridazine-3-carboxamide] here?
Answer: 1000 to 10000 nM

Question: `C[C@@H](NC(=O)c1ccc(=O)n(C2C[C@@H]3CC[C@H]2C3)n1)c1cc(N)cc(C(F)(F)F)c1` (stereo partly drawn) [Example 119, N-[(1R)-1-[3-amino-5-(trifluoromethyl)phenyl]ethyl]-1-[(1S,4R)-bicyclo[2.2.1]heptan-2-yl]-6-oxo-1,6-dihydropyridazine-3-carboxamide] was tested. Which IC50 did it give?
Answer: > 10000 nM

Question: How did the IC50 turn out when `C[C@@H](NC(=O)c1cn(-c2ccccc2)c(=O)cn1)c1cc(N)cc(C(F)(F)F)c1` [Example 63, N-[(1R)-1-[3-amino-5-(trifluoromethyl)phenyl]ethyl]-5-oxo-4-phenyl-pyrazine-2-carboxamide] was run?
Answer: 1000 to 10000 nM

Question: How did the IC50 turn out when `C[C@@H](NC(=O)c1ccc(=O)n(-c2ccncc2)n1)c1cc(N)cc(C(F)(F)F)c1` [Example 21, N-[(1R)-1-[3-amino-5-(trifluoromethyl)phenyl]ethyl]-6-oxo-1-(4-pyridyl)pyridazine-3-carboxamide] was run?
Answer: < 1000 nM
